The conditions of test [1]: cited from earlier work; for kapp,O2,A (Superoxide Reaction Data): full value printed in cell; for kapp,O2− (Superoxide Reaction): iron(III) complexes, aqueous solution, literature values (footnotes b, c, d, f).
The conditions of test [2]: MeOPH^− association; from Summers et al. 2001; cited from earlier work.
For test [3] the following is noted: trend line of FIG. 8; pH 4.0 to 9.2.
Procedure: While Fe^IIIEDTA(OH)^2− is usually formed by deprotonation of coordinated water, its formation can also be thought of (in thermodynamic terms) as a ligand exchange. To investigate the thermodynamics of the formation of Fe^IIIEDTA(OH)^2−, the reaction of F^− with Fe^IIIEDTA(H2O)^− was studied as a function of pH. For Fe^IIIEDTA(H2O)^−, relaxation enhancements were measured for thirteen buffer conditions, having pH values ranging from 4.0 to 9.2. […] In this pH range, F^− 19F relaxation enhancement is governed by two protic equilibria, hydrolysis of Fe^IIIEDTA(H2O)^− and protonation of F^−, as described by Equations 9 and 10:
Fitting the data at pH>6 gives the thermodynamic equilibrium data for hydroxide binding.
Test [4] in a line: Metal/fluoride association from F^− 19F NMR transverse relaxation enhancement (CPMG). Type of test: physicochemical. Conditions: for kapp,X− (Flouride Association Reaction) / ΔH^‡ (Flouride Association Reaction): iron(III) complexes; for kapp,X− (Flouride Association Reaction) / kapp,X− (Anion Binding Data): 25° C., 90% H2O/10% D2O; for ΔH^‡ (Flouride Association Reaction): activation enthalpy; for ΔH^‡ (Anion Binding Data): manganese(II) complexes; for ΔH^‡ (Anion Binding Data) / kapp,X− (Anion Binding Data): metal/F^− association. The source says: CPMG is the standard technique for measuring transverse NMR relaxation times (T2). See, for example, Braun et al., “150 and More Basic NMR Experiments,” Wiley-VCH Weinheim, 1998, page 159.
Rate constants for metal/probe association reactions can be related directly to the effects of the metal complex on the NMR relaxation rates of probe nuclei.
R2,obs−R2,dia=kapp,F−[M] (6)
where R2,dia is the relaxation rate in diamagnetic solution and kapp,F− is the apparent second order rate constant for metal/F^− association. The effects of eleven paramagnetic metal complexes, Fe^IIIEDTA(H2O)^−, Fe^IIIEDTA(OH)^2−, Fe^IIIPDTA^−, Fe^IIIDTPA^2−, Fe^III2O(TTHA)^2−, Fe^III(CN)6^3−, Mn^IIEDTA(H2O)^2−, Mn^IIPDTA^2−, Mn^IIβ-EDDADP^2−, Mn^IIPO4^−, and Cu/Zn SOD on F^− ion ^19F NMR transverse relaxation rates (R2=1/T2) were studied in aqueous solutions as a function of temperature.
Without being bound to any one theory, the curvature of the plot can arise from a similarity in the magnitudes of outer-sphere and inner-sphere contributions to relaxation (R2,OS and R2,IS). See Dwek, R. A., Nuclear Magnetic Resonance in Biochemistry, Clarendon, Oxford, 1973. […] See Dwek, R. A., Nuclear Magnetic Resonance in Biochemistry, Clarendon, Oxford, 1973. To estimate the contribution of R2,OS, relaxation enhancement of the ^19F resonance of the trifluoroacetate anion (tfa) by Fe^IIIDTPA^2− was measured. R2,IS for the tfa resonance should be negligible due to the low basicity of the anion and the absence of a through bond pathway for magnetic interaction between the paramagnetic center and the ^19F nuclei. For the tfa resonance, R2,obs decreased with increasing temperature consistent with an outer-sphere interaction.
where α, β, and γ are constants. The γ term for F^− relaxation in Equation 7 was set equal to the slope of the least squares line for the tfa data, and ΔH^‡, α, and β were refined to give the curved trend line following the F^− data in FIG. 6. Dashed lines (a) and (b) in FIG. 6 represent the predicted outer-sphere and inner-sphere contributions to the relaxation rate, respectively. The 25° C. association rate constant and activation enthalpy in Table 1 (and used in FIG. 2) are from this refinement.

In the next test the target is SOD (Bos taurus, UniProt P00442). To be noted: from Viglino et al. 1979; cited from earlier work.
Chain of SOD (P00442 2-152 limits assumed): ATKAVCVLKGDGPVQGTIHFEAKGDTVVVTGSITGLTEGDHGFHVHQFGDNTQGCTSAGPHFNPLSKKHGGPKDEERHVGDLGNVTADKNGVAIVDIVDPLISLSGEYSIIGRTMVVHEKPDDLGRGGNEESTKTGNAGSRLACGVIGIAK
Test [5] can be described thus: Reaction of metal complexes with superoxide (pulse radiolysis and literature rate data). Type of test: physicochemical. To be noted: manganese(II) complexes, pulse radiolysis; for kapp,O2,B × 10^−2 (Superoxide Reaction Data): printed value is k × 10^−2; for kapp,O2,A × 10^−7 (Superoxide Reaction Data): printed value is k × 10^−7. The protocol: In addition, the rates at which O2.^− reacts with Fe^IIIPDTA^−, Mn^IIEDTA(H2O)^2−, Mn^IIPDTA^2−, and Mn^IIβ-EDDADP^2− were determined by pulse radiolysis. […] The data for the SOD enzyme was previously reported. See Viglino et al., J. Magn. Res., 1979, 34, 265. These reactivity patterns are consistent with literature precedents for similar complexes.
Rapid reactions of Fe^3+ with superoxide (O2.^−) appear to occur via inner-sphere mechanisms where metal/O2.^− association is rate limiting. Under this scenario, rates of metal/O2.^− reactions are expected to correlate with rates at which the metal complexes coordinate F^−.
In addition to metal/F^− association data, FIG. 2 includes published rate data for reactions of a water soluble manganese(III) porphyrin (Mn^IIITM-2-PyP^5+). One of the gray squares in FIG. 2 compares the rate of metal/MeOPH association to the catalytic rate constant for O2.^− dissmutation (kcat) for Mn^IIITM-2-PyP^5+. See Summers et al., Inorg. Chem., 2001, 40, 6547. Values of kcat for manganese(III) porphyrins are thought to be limited by rates of Mn^3+ reduction. See Batinic-Haberle et al., Inorg. Chem., 1999, 38, 4011-4022.

Test [6] addresses T1, Cu/Zn SOD (Homo sapiens, UniProt P00441). To be noted: 100 μM; Huang et al., Nature 2000; cited from earlier work.
Test [7] concerns the target T1, Cu/Zn SOD. In words: Reaction of Cu/Zn SOD with superoxide in the presence of an inhibitor. Type of test: biochemical. Conditions: 100 μM, 20 mM phosphate buffered saline pH 7.2 (neutral conditions). Here is the method: SOD was added to give an NMR relaxation rate of 28 s^−1. […] See Huang et al., Nature, 2000, 407, 390-395. […] It was also determined that under these conditions, reaction of the enzyme with superoxide was not inhibited.

Where two headings read alike, the source gives them in different places. Marks after values point to notes of the source that are not given here.

T1 sequence (P00441 whole entry): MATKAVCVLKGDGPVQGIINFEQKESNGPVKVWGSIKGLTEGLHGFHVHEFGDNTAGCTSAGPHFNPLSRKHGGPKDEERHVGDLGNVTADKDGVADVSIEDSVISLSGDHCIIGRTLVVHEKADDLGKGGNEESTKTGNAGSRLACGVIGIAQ

Regarding `O.O.O.O.O.O.[Mn+2]` [Mn^II(H2O)6^2+], the “kapp,O2,A (Superoxide Reaction Data)” value in test [1] (from Pick-Kaplan and Rabini) is on record as 1.1 × 10^8 (f) M^−1s^−1. Moreover, in test [2], the “kapp,X− (Anion Binding Data)” value is on record as 5.8 × 10^6 (e) M^−1s^−1 and the “ΔH^‡ (Anion Binding Data)” value is 47 ^(e) kJ/mol.

In the case of `O.O=C([O-])CN(CCN(CC(=O)[O-])CC(=O)[O-])CC(=O)[O-].[Fe+3]` [Fe^IIIEDTA(H2O)^−, iron (III) ethylenediamine-N,N,N″,N″-tetraacetic acid hydrate], the “kapp,O2− (Superoxide Reaction)” value in test [1] is recorded as 1.9 × 10^6 (f) M^−1s^−1. Further, the “apparent rate constant for HF association” value in test [3] turned out to be 93000 M⁻¹ s⁻¹. Also, the “kapp,X− (Flouride Association Reaction)” value in test [4] (pH 6) is 93000 M⁻¹ s⁻¹. The “ΔH^‡ (Flouride Association Reaction)” value in test [4] is 9.32 kcal/mol. Further, the “apparent rate constant for F^− association” value in test [4] (trend line of FIG. 8, pH 4.0 to 9.2) was 4e+06 M⁻¹ s⁻¹.

With `F` [fluoride, fluoride anion], the “association constant for fluoride binding” value on SOD is 1.2 M⁻¹.

Turning to `O=C([O-])CCN(CCN(CCC(=O)[O-])CC(=O)[O-])CC(=O)[O-].[Mn+2]` [Mn^IIβ-EDDADP^2−], in test [5], the “kapp,O2,B × 10^−2 (Superoxide Reaction Data)” value is 3.5 ± 0.7 s^−1 and the “kapp,O2,A × 10^−7 (Superoxide Reaction Data)” value was 1.95 ± 0.40 M^−1s^−1. Further, the “ΔH^‡ (Anion Binding Data)” value in test [4] was 5.26 kcal/mol. In addition, the “kapp,X− (Anion Binding Data)” value in test [4] (pH 7) worked out at 130000 M⁻¹ s⁻¹.

`COc1cc2c(cc1O)CC[C@@H]1[C@@H]2CC[C@]2(C)[C@@H](O)CC[C@@H]12` [Complex 2ME2, 2-methoxyestradiol]: the “inhibition of Cu/Zn SOD previously reported” value on Cu/Zn SOD [6] is on record as “complete inhibition”. For the same molecule, on Cu/Zn SOD [7], the “reaction of the enzyme with superoxide” value is on record as “not inhibited”.

Regarding `O=P([O-])([O-])[O-].[Mn+2]` [Mn^IIPO4 ^−], in test [1] (pH 6, from Cabelli and Bielski), the “kapp,O2,A (Superoxide Reaction Data)” value is recorded as 5.0 × 10^7 (b,c) M^−1s^−1. In test [4], the “ΔH^‡ (Anion Binding Data)” value stood at 10 kcal/mol. In test [4] (pH 6), the “kapp,X− (Anion Binding Data)” value is on record as 1.8 × 10^6 (b) M^−1s^−1.

For `O=C([O-])CN(CCN(CC(=O)[O-])CC(=O)[O-])CCN(CC(=O)[O-])CC(=O)[O-].[Fe+3]` [Fe^IIIDTPA^2−, iron (III) diethylenetriaminepentaacetate], the “kapp,O2− (Superoxide Reaction)” value in test [1] was 6 × 10^3 (c) M^−1s^−1. Besides, in test [4] (pH 6), the “kapp,X− (Flouride Association Reaction)” value was found to be 240 M⁻¹ s⁻¹. Besides, the “ΔH^‡ (Flouride Association Reaction)” value in test [4] amounted to 5.26 kcal/mol.

Consider `O=C([O-])CN(CCN(CCN(CC(=O)[O-])CC(=O)[O-])CC(=O)[O-])CCN(CC(=O)[O-])CC(=O)[O-].[Fe+3].[Fe+3].[O-2]` [Fe^III2O(TTHA)^2−], for which the “kapp,O2− (Superoxide Reaction)” value in test [1] is reported as 1.2 × 10^4 (d) M^−1s^−1. Also, in test [4] (pH 6), the “kapp,X− (Flouride Association Reaction)” value came out at 12 M⁻¹ s⁻¹. Further, the “ΔH^‡ (Flouride Association Reaction)” value in test [4] came out at 9.32 kcal/mol.

With `O.O=C([O-])CN(CCN(CC(=O)[O-])CC(=O)[O-])CC(=O)[O-].[Mn+2]` [Mn^IIEDTA(H2O)^2−], in test [5], the “kapp,O2,B × 10^−2 (Superoxide Reaction Data)” value was found to be 4.0 ± 0.8 s^−1 and the “kapp,O2,A × 10^−7 (Superoxide Reaction Data)” value amounted to 1.24 ± 0.24 M^−1s^−1. Besides, the “ΔH^‡ (Anion Binding Data)” value in test [4] was 7.41 kcal/mol. In addition, the “kapp,X− (Anion Binding Data)” value in test [4] (pH 7) was determined as 60000 M⁻¹ s⁻¹.

Values taken from patent US20090088340A1, “METHODS FOR PREDICTING THE REDUCTION/OXIDATION (REDOX) REACTION ACTIVITY OF METAL COMPLEXES” (WESTERN CAROLINA UNIVERSITY, priority 2007, published 2009).
